Measurements taken from patent US20250228239A1, “MOLECULES HAVING PESTICIDAL UTILITY, AND INTERMEDIATES, COMPOSITIONS, AND PROCESSES, RELATED THERETO” (priority 2024, published 2025).
Like-named read-outs stand apart in the source and are kept apart here.

How the values were obtained:
Assay type in all cases: in vivo
[1] = tested on: Yellow Fever Mosquito (Aedes aegypti, AEDSAE); details: for YFM rating: Yellow Fever Mosquito, Table ABC / ABC-DP rating; for YFM % Control (or Mortality) rating: about 1 day-old larvae, 4000 ppm master solution diluted with 90:10 water/acetone, 15 μL per well plus 220 μL larval mixture, 3 days; for YFM: Table ABC: Biological Results, species YFM
Outline: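 Larvae ~1 day old, in liver powder/water; compound from 4000 ppm DMSO stock diluted with water/acetone (90:10); 6 reps; lidded, RT, 3 d; mortality scored per well, rated.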

[2] = tested on: Beet Armyworm (Spodoptera exigua, LAPHEG); test: Bioassays on Beet Armyworm (BAW), 128-well diet tray assay; details: Spodoptera exigua; for mortality at 50 µg/cm2: 168 h, second instar larvae, 50 μg/cm^2 of test molecule on artificial diet, 25° C., five to seven days, average of eight wells, read-out: BAW % Control (or Mortality) rating
Outline: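 Percent larval mortality, averaged across eight wells, scored after five to seven days at 25° C. under 14:10 light-dark. Each well held one to five second instars feeding on diet dosed at 50 μg/cm^2 with compound from 90:10 acetone-water, solvent dried off.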

[3] = tested on: Cabbage Looper (Trichoplusia ni, TRIPNI); test: Bioassays on Cabbage Looper (CL), 128-well diet tray assay; details: Trichoplusia ni; for mortality at 50 µg/cm2: 168 h, second instar larvae, 50 μg/cm^2 of test molecule on artificial diet, 25° C., five to seven days, average of eight wells, read-out: CL % Control (or Mortality) rating
Outline: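 Percent mortality, averaged across eight replicate wells, after second-instar larvae (1–5 per well) fed for five to seven days on diet dosed at 50 μg/cm^2. Compound was applied in acetone-water 90:10 and dried; trays kept vented at 25° C under 14:10 photoperiod.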

[4] = Beet Armyworm, Table ABC / ABC-DP rating, read-out: BAW rating
[5] = Cabbage Looper, Table ABC / ABC-DP rating, read-out: CL rating
[6] = Table ABC: Biological Results, species BAW, read-out: BAW
[7] = Table ABC: Biological Results, species CL, read-out: CL

Structure (SMILES) | YFM rating [1] | YFM % Control (or Mortality) rating [1] | mortality at 50 µg/cm2 [2] [%] | pest or weed control at 50 µg/cm2 [2, 4] [%] | mortality at 50 µg/cm2 [3] [%] | pest or weed control at 50 µg/cm2 [3, 5] [%] | YFM [1] | pest or weed control at 50 µg/cm2 [2, 6] [%] | pest or weed control at 50 µg/cm2 [3, 7] [%]
O=C(NN=Cc1ccc(F)cc1F)c1cc(NC(=O)[C@H]2[C@H](c3cc(Cl)cc(Cl)c3)C2(Cl)Cl)ccc1Cl (relative stereo) [F3004, trans-2,2-Dichloro-N-(4-chloro-3-(2-(2,4-difluorobenzylidene)hydrazine-1-carbonyl)phenyl)-3-(3,5-dichlorophenyl)cyclopropane-1-carboxamide] | A (80–100) | A (80–100) | 50 to 100 | 50 to 100 | 50 to 100 | 50 to 100 |  |  | 
CC(=NNC(=O)c1cc(NC(=O)[C@H]2[C@H](c3cc(Cl)cc(Cl)c3)C2(Cl)Cl)ccc1Cl)c1ccccc1 (relative stereo) [F3005, trans-2,2-Dichloro-N-(4-chloro-3-(2-(1-phenylethylidene)hydrazine-1-carbonyl)phenyl)-3-(3,5-dichlorophenyl)cyclopropane-1-carboxamide] | A (80–100) | A (80–100) | 50 to 100 | 50 to 100 | 50 to 100 | 50 to 100 |  |  | 
O=C(NN=CCC(F)(F)F)c1cc(NC(=O)[C@H]2[C@H](c3cc(Cl)cc(Cl)c3)C2(Cl)Cl)ccc1Cl (relative stereo) [F3008, trans-2,2-Dichloro-N-(4-chloro-3-(2-(3,3,3-trifluoropropylidene)hydrazine-1-carbonyl)phenyl)-3-(3,5-dichlorophenyl)cyclopropane-1-carboxamide] | A (80–100) | A (80–100) | 50 to 100 | 50 to 100 | 50 to 100 | 50 to 100 |  |  | 
CN(N=CCC(F)(F)F)C(=O)c1cc(NC(=O)[C@H]2[C@H](c3cc(Cl)cc(Cl)c3)C2(Cl)Cl)ccc1Cl (relative stereo) [F3009, trans-2,2-dichloro-N-(4-chloro-3-(1-methyl-2-(3,3,3-trifluoropropylidene)hydrazine-1-carbonyl)phenyl)-3-(3,5-dichlorophenyl)cyclopropane-1-carboxamide] | A (80–100) | A (80–100) | 50 to 100 | 50 to 100 | 50 to 100 | 50 to 100 |  |  | 
CC(C)=NNC(=O)c1cc(NC(=O)[C@H]2[C@H](c3cc(Cl)cc(Cl)c3)C2(Cl)Cl)ccc1Cl (relative stereo) [F3010, trans-2,2-Dichloro-N-(4-chloro-3-(2-(propan-2-ylidene)hydrazine-1-carbonyl)phenyl)-3-(3,5-dichlorophenyl)cyclopropane-1-carboxamide] | A (80–100) | A (80–100) | 50 to 100 | 50 to 100 | 50 to 100 | 50 to 100 |  |  | 
Nc1c(F)ccc(NC(=O)c2cc(NC(=O)[C@H]3[C@H](c4ccc(Cl)c(Cl)c4)C3(Cl)Cl)ccc2Cl)c1F [DP2, N-(3-Amino-2,4-difluorophenyl)-2-chloro-5-((1R,3R)-2,2-dichloro-3-(3,4-dichlorophenyl)cyclopropane-1-carboxamido)benzamide] | A (80–100) | A (80–100) | 50 to 100 | 50 to 100 | 50 to 100 | 50 to 100 |  |  | 
Nc1cc(NC(=O)c2cc(NC(=O)[C@H]3[C@H](c4ccc(Cl)c(Cl)c4)C3(Cl)Cl)ccc2Cl)c(F)cc1F [DP5, N-(5-Amino-2,4-difluorophenyl)-2-chloro-5-((1R,3R)-2,2-dichloro-3-(3,4-dichlorophenyl)cyclopropane-1-carboxamido)benzamide] | A (80–100) | A (80–100) | 50 to 100 | 50 to 100 | 50 to 100 | 50 to 100 |  |  | 
CC(C)(C)OC(=O)N(C(=O)OC(C)(C)C)c1c(F)ccc(NC(=O)c2cc(NC(=O)[C@H]3[C@H](c4ccc(Cl)c(Cl)c4)C3(Cl)Cl)ccc2Cl)c1F [DP7, tert-Butyl-N-((tert-butoxy)carbonyl)-N-(3-(2-chloro-5-((1R,3R)-2,2-dichloro-3-(3,4-dichlorophenyl)cyclopropane-1-carboxamido)benzamido)-2,6-difluorophenyl)carbamate] |  | D (No activity noticed in this bioassay) | 50 to 100 | 50 to 100 | 0 to 50 | 0 to 50 |  |  | 
Nc1c(F)ccc(NC(=O)c2cc(NC(=O)[C@H]3[C@H](c4ccc(F)c(C(F)(F)F)c4)C3(Cl)Cl)ccc2Cl)c1F [DP9, N-(3-amino-2,4-difluorophenyl)-2-chloro-5-((1R,3R)-2,2-dichloro-3-(4-fluoro-3-(trifluoromethyl)phenyl)cyclopropane-1-carboxamido)benzamide] | A (80–100) | A (80–100) | 50 to 100 | 50 to 100 | 50 to 100 | 50 to 100 |  |  | 
CC(C)(C)OC(=O)N(C(=O)OC(C)(C)C)c1cc(NC(=O)c2cc(NC(=O)[C@H]3[C@H](c4ccc(Cl)c(Cl)c4)C3(Cl)Cl)ccc2Cl)c(F)cc1F [DP12, tert-Butyl-N-((tert-butoxy)carbonyl)-N-(5-(2-chloro-5-((1R,3R)-2,2-dichloro-3-(3,4-dichlorophenyl)cyclopropane-1-carboxamido)benzamido)-2,4-difluorophenyl)carbamate] |  | D (No activity noticed in this bioassay) | 50 to 100 | 50 to 100 | 50 to 100 | 50 to 100 |  |  | 
O=C(Nc1ccc(F)cc1F)c1cc(NC(=O)C2C(c3cc(Br)cc(S(F)(F)(F)(F)F)c3)C2(Cl)Cl)ccc1Cl (stereo not drawn) [F1032, cis-5-(3-(3-Bromo-5-(pentafluoro-λ^6-sulfanyl)phenyl)-2,2-dichiorocyclopropane-1-carboxamido)-2-chloro-N-(2,4-difluorophenyl)benzamide] |  |  |  |  |  |  | A (80–100) | 50 to 100 | 50 to 100
CC(C)(C)OC(=O)Nc1c(F)ccc(NC(=O)c2cc(NC(=O)[C@H]3[C@H](c4ccc(F)c(C(F)(F)F)c4)C3(Cl)Cl)ccc2Cl)c1F [F1053, tert-Butyl-(3-(2-chloro-5-((1R,3R)-2,2-dichloro-3-(4-fluoro-3-(trifluoromethyl)phenyl)cyclopropane-1-carboxamido)benzamido)-2,6-difluorophenyl)carbamate] |  |  |  |  |  |  | A (80–100) | 50 to 100 | 50 to 100
O=C(Nc1ccc(F)c(NC(=O)C(F)(F)F)c1F)c1cc(NC(=O)[C@H]2[C@H](c3ccc(Cl)c(Cl)c3)C2(Cl)Cl)ccc1Cl [F1064, 2-Chloro-5-((1R,3R)-2,2-dichloro-3-(3,4-dichlorophenyl)cyclopropane-1-carboxamido)-N-(2,4-difluoro-3-(2,2,2-trifluoroacetamido)phenyl)benzamide] |  |  |  |  |  |  | A (80–100) | 50 to 100 | 50 to 100
O=C(Nc1ccc(F)c(NC(=O)C(F)F)c1F)c1cc(NC(=O)[C@H]2[C@H](c3ccc(Cl)c(Cl)c3)C2(Cl)Cl)ccc1Cl [F1065, 2-Chloro-5-((1R,3R)-2,2-dichloro-3-(3,4-dichlorophenyl)cyclopropane-1-carboxamido)-N-(3-(2,2-difluoroacetamido)-2,4-difluorophenyl)benzamide] |  |  |  |  |  |  | A (80–100) | 50 to 100 | 50 to 100
CC(C)(C)OC(=O)Nc1c(F)ccc(NC(=O)c2cc(NC(=O)[C@@H]3[C@@H](c4ccc(F)c(C(F)(F)F)c4)C3(Cl)Cl)ccc2Cl)c1F [F1074, tert-Butyl-(3-(2-chloro-5-((1S,3S)-2,2-dichloro-3-(4-fluoro-3-(trifluoromethyl)phenyl)cyclopropane-1-carboxamido)benzamido)-2,6-difluorophenyl)carbamate] |  |  |  |  |  |  | A (80–100) | 50 to 100 | 50 to 100
CC(=O)Nc1c(F)ccc(NC(=O)c2cc(NC(=O)[C@H]3[C@H](c4ccc(F)c(C(F)(F)F)c4)C3(Cl)Cl)ccc2Cl)c1Cl [F1161, N-(3-Acetamido-2-chloro-4-fluorophenyl)-2-chloro-5-((1R,3R)-2,2-dichloro-3-(4-fluoro-3-(trifluoromethyl)phenyl)cyclopropane-1-carboxamido)benzamide] |  |  |  |  |  |  | A (80–100) | 50 to 100 | 50 to 100
